Assay results as given in patent US8507502B2, “Fused bicyclic and tricyclic pyrimidine compounds as tyrosine kinase inhibitors” (National Health Research Institutes, priority 2008, dated 2013).
Where two headings read alike, the source gives them in different places.

What was measured:
HCC827 cells = assay: HCC827 cell viability, MTS assay; assay type: cell-based; conditions: Homo sapiens, 96-h incubation, read-out: IC50 (concentration which causes 50% of the cell death)
GST-EGFR-KD^WT = target: T1, GST-EGFR-KD^WT (Homo sapiens, UniProt P00533); assay: EGFR kinase assay (Kinase-Glo); assay type: biochemical; conditions: 5 μM ATP, read-out: IC50 (concentration at which activity of 50% of EGFR is inhibited)
T1 construct: 50 ng GST-EGFR-KD^WT proteins; made in house
T1 sequence (P00533 712-979 limits assumed): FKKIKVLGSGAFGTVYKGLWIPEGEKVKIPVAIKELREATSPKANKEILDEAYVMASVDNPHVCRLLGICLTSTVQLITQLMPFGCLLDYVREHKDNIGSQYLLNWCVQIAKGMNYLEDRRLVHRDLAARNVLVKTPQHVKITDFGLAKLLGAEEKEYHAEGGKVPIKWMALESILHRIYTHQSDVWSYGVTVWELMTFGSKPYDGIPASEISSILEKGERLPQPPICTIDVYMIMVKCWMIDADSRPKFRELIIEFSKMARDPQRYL

SMILES	IC50 (GST-EGFR-KD^WT)	IC50 (GST-EGFR-KD^WT; range given in mixed units)	IC50 (HCC827 cells)
CC[C@@H](Nc1ncnc2oc(-c3ccccc3)c(-c3ccccc3)c12)c1ccccc1 [Compound 54]	–	–	301 to 999 nM
OC[C@@H](Nc1ncnc2sc3c(c12)CCC3)c1ccccc1 [Compound 3]	–	–	301 to 999 nM
OC[C@@H](Nc1ncnc2oc(-c3ccccc3)c(-c3ccoc3)c12)c1ccccc1 [Compound 41]	–	101 to 900 nM	100 to 300 nM
COc1ccc(-c2oc3ncnc(N[C@H](CO)c4ccccc4)c3c2-c2ccc(OC)cc2)cc1 [Compound 36]	60 to 100 nM	–	–
OC[C@@H](Nc1ncnc2oc(-c3ccccc3)c(Cl)c12)c1ccccc1 [Compound 45]	–	101 to 900 nM	–
C[C@@H](Nc1ncnc2sc3c(c12)CCN(C(=O)/C=C/CNc1ccccc1)C3)c1ccccc1 [Compound 206]	–	101 to 900 nM	301 to 999 nM
C=CC(=O)Nc1ccc(-c2c(-c3ccccc3)oc3ncnc(N[C@H](CO)c4ccccc4)c23)cc1 [Compound 118, S—N-{4-[4-(2-Hydroxy-1-phenyl-ethylamino)-6-phenyl-furo[2,3-d]pyrimidin-5-yl]-phenyl}-acrylamide]	60 to 100 nM	–	301 to 999 nM
C[C@@H](Nc1ncnc2sc3c(c12)CCN(C(=O)/C=C/CN(C)CCO)C3)c1ccccc1 [Compound 213]	< 59 nM	–	1 to 99 nM
OC[C@@H](Nc1ncnc2sc(-c3ccccc3)c(Cl)c12)c1ccccc1 [Compound 8]	–	101 to 900 nM	–
C[C@@H](Nc1ncnc2sc3c(c12)CCN(C(=O)/C=C/CN=[N+]=[N-])C3)c1ccccc1 [Compound 208]	< 59 nM	–	1 to 99 nM
CN(C)C/C=C/C(=O)N1CCc2c(sc3ncnc(N[C@H](CO)Cc4ccccc4)c23)C1 [Compound 192]	–	101 to 900 nM	1 to 99 nM
Cc1sc2ncnc(N[C@H](CO)c3ccccc3)c2c1C [Compound 4, (S)-2-(5,6-dimethylthieno[2,3-d]pyrimidin-4-ylamino)-2-phenylethanol]	–	–	301 to 999 nM
O=C(O)[C@@H](Nc1ncnc2oc(-c3ccccc3)c(Br)c12)c1ccccc1 [Compound 53]	< 59 nM	–	–
O=C(O)[C@@H](Nc1ncnc2sc3c(c12)CCC3)c1ccccc1 [Compound 20]	–	101 to 900 nM	–
C=CC(=O)N1CCc2c(sc3ncnc(N[C@H](CO[Si](C)(C)C(C)(C)C)c4ccccc4)c23)C1 [Compound 15]	–	101 to 900 nM	301 to 999 nM
CC(=O)OC[C@@H](Nc1ncnc2oc(-c3ccccc3)c(Br)c12)c1ccccc1 [Compound 44]	–	–	301 to 999 nM
O=C(O)/C=C\C(=O)N1CCc2c(sc3ncnc(N[C@H](CO)c4ccccc4)c23)C1 [Compound 61]	–	101 to 900 nM	–

SMILES	IC50 (GST-EGFR-KD^WT)	IC50 (GST-EGFR-KD^WT; range given in mixed units)	IC50 (HCC827 cells)
CC[C@@H](Nc1ncnc2sc3c(c12)CCCC3)c1ccccc1 [Compound 23]	–	101 to 900 nM	301 to 999 nM
CCN(CC)C/C=C/C(=O)N1CCc2c(sc3ncnc(N[C@H](CCO)c4ccccc4)c23)C1 [Compound 199]	< 59 nM	–	–
C[C@@H](Nc1ncnc2sc3c(c12)CCN(C(=O)/C=C/CNN1CCCCC1)C3)c1ccccc1 [Compound 212]	< 59 nM	–	1 to 99 nM
OC[C@@H](Nc1ncnc2oc(-c3ccccc3)c(-c3ccccc3)c12)c1ccccc1 [Compound 31, S-2-(5,6-diphenyl-furo[2,3-d]pyrimidin-4-ylamino)-2-phenyl-ethanol]	–	101 to 900 nM	301 to 999 nM
CN(C)C/C=C/C(=O)N1CCc2c(sc3ncnc(N[C@H](CO[Si](C)(C)C(C)(C)C)c4ccccc4)c23)C1 [Compound 186]	60 to 100 nM	–	301 to 999 nM
CN(C)C/C=C/C(=O)N1CCc2c(sc3ncnc(N[C@H](CCO)c4ccccc4)c23)C1 [Compound 194]	< 59 nM	–	1 to 99 nM
CCOC(=O)[C@@H](Nc1ncnc2oc(-c3ccccc3)c(-c3ccccc3)c12)c1ccccc1 [Compound 47]	–	–	301 to 999 nM
OC[C@@H](Nc1ncnc2sc3c(c12)CCCC3)c1ccccc1 [Compound 1, S-2-phenyl-2-(5,6,7,8-tetrahydro-benzo[4,5]thieno[2,3-d]pyrimidin-4-ylamino)-ethanol]	–	101 to 900 nM	100 to 300 nM
COC(=O)[C@@H](Nc1ncnc2oc(-c3ccccc3)c(-c3ccccc3)c12)c1ccccc1 [Compound 46]	–	–	301 to 999 nM
O=C(O)[C@@H](Nc1ncnc2sc(-c3ccccc3)cc12)c1ccccc1 [Compound 22]	–	101 to 900 nM	–
O=C(O)[C@@H](Nc1ncnc2oc(-c3ccccc3)c(-c3ccccc3)c12)c1ccccc1 [Compound 50]	< 59 nM	–	–
CCOC(=O)/C=C/C(=O)N1CCc2c(sc3ncnc(N[C@H](CO)c4ccccc4)c23)C1 [Compound 68]	–	–	1 to 99 nM
C=CC(=O)Nc1ccc(-c2nc3c(N[C@H](CO)c4ccccc4)ncnc3o2)cc1 [Compound 154]	–	101 to 900 nM	–
O=C(O)[C@@H](Nc1ncnc2sc3c(c12)CCCC3)c1ccccc1 [Compound 18]	–	101 to 900 nM	–
CC[C@@H](Nc1ncnc2oc(-c3ccccc3)cc12)c1ccccc1 [Compound 56]	–	–	301 to 999 nM
OC[C@@H](Nc1ncnc2sc(-c3ccccc3)cc12)c1ccccc1 [Compound 7]	–	101 to 900 nM	–

Second part, led by results:

IC50 (GST-EGFR-KD^WT)	IC50 (GST-EGFR-KD^WT; range given in mixed units)	SMILES	IC50 (HCC827 cells)
< 59 nM	–	C=CC(=O)Nc1cccc(-c2cc3c(N[C@H](CO)c4ccccc4)ncnc3s2)c1 [Compound 245]	100 to 300 nM
< 59 nM	–	CCC[C@@H](Nc1ncnc2sc3c(c12)CCN(C(=O)/C=C/CN(C)C)C3)c1ccccc1 [Compound 217]	1 to 99 nM
< 59 nM	–	COC[C@@H](Nc1ncnc2sc3c(c12)CCN(C(=O)/C=C/CN(C)C)C3)c1ccccc1 [Compound 229]	1 to 99 nM
< 59 nM	–	CN(C)C/C=C/C(=O)N1CCc2c(sc3ncnc(N[C@H](CCOCc4ccccc4F)c4ccccc4)c23)C1 [Compound 218]	1 to 99 nM
< 59 nM	–	CC(=O)OC/C=C/C(=O)N1CCc2c(sc3ncnc(N[C@H](C)c4ccccc4)c23)C1 [Compound 214]	1 to 99 nM
60 to 100 nM	–	C=CC(=O)Nc1cccc(-c2coc3ncnc(N[C@H](CO)c4ccccc4)c23)c1 [Compound 244]	301 to 999 nM
< 59 nM	–	C=CC(=O)Nc1cccc(-c2csc3ncnc(N[C@H](CO)c4ccccc4)c23)c1 [Compound 246]	1 to 99 nM
< 59 nM	–	CCN(C/C=C/C(=O)N1CCc2c(sc3ncnc(N[C@H](C)c4ccccc4)c23)C1)CCO [Compound 216]	1 to 99 nM
< 59 nM	–	CN(C)C/C=C/C(=O)N1CCc2c(sc3ncnc(N[C@H](COCc4ccc(F)cc4)c4ccccc4)c23)C1 [Compound 219]	1 to 99 nM
< 59 nM	–	CN(C)C/C=C/C(=O)N1CCc2c(sc3ncnc(N[C@H](COCc4ccncc4)c4ccccc4)c23)C1 [Compound 224]	1 to 99 nM
< 59 nM	–	COCCN(C)C/C=C/C(=O)N1CCc2c(sc3ncnc(N[C@H](CO)c4ccccc4)c23)C1 [Compound 327]	–
–	101 to 900 nM	C=CC(=O)Nc1cccc(-c2c(-c3ccccc3)oc3ncnc(N(C)C(COC)c4ccccc4)c23)c1 (stereo not drawn) [Compound 247]	–
< 59 nM	–	CN(C)C/C=C/C(=O)N1CCc2c(sc3ncnc(N[C@H](COCc4cccnc4)c4ccccc4)c23)C1 [Compound 231]	1 to 99 nM
–	101 to 900 nM	CC#CC(=O)Nc1cccc(-c2c(-c3ccccc3)oc3ncnc(N[C@H](COC)c4ccccc4)c23)c1 [Compound 242]	–
60 to 100 nM	–	C/C=C/C(=O)N1CCc2c(sc3ncnc(N[C@H](COCc4cccc(F)c4)c4ccccc4)c23)C1 [Compound 220]	–
